Assays:
[1] = Test Example 1: removal of hydrogen sulfide from hexane, FPD gas chromatography; details: for Test sample A Hydrogen sulfide concentration: 100 ppm hydrogen sulfide, 100 ppm compound; for effect of removing hydrogen sulfide (in words): summary of Table 1
Protocol: Two 200-ml four-neck flasks were provided. Hexane (100 ml) was placed in the flask equipped with a bubbling device. In the other flask, iron sulfide underwent a reaction with the dropwise addition of hydrochloric acid, resulting the generation of hydrogen sulfide. Then, hexane was subjected to bubbling with hydrogen sulfide that had been transferred via a tube. Thus, test samples at a hydrogen sulfide concentration of 100 ppm were prepared. The measurement of hydrogen sulfide concentration was carried out by FPD gas chromatography (using a flame photometric detector). Stock solution of BNPA, DBNE, and BNP (100 ppm each) were separately added to the test samples, followed by stirring for a given period of time. The hydrogen sulfide concentration of each sample was measured in a time-dependent manner.

[2] = Test Example 2: removal of methyl mercaptan gas by formulation in closed bag, detector tube; details: for Methyl mercaptan gas concentration: 1 ml formulation, methyl mercaptan gas at 500 ppm; for effect of removing methyl mercaptan (in words): summary of Table 2
Protocol: A formulation containing BNPA was previously prepared in accordance with Formulation example 1. With the use of DBNE and BNP instead of BNPA, formulations containing DBNE and BNP, respectively, were prepared, in accordance with formulation example 1. Each formulation (1 ml) was dispensed into a glass petri dish covered with a plastic bag. Then, each plastic bag was closed after being filled with methyl mercaptan gas at 500 ppm. The methyl mercaptan gas was allowed to come into contact with the formulation for a given time. Thereafter, the methyl mercaptan gas concentration was measured using a detector tube.

[3] = Test Example 3: removal of hydrogen sulfide dissolved in water, methylene blue colorimetric method; details: for removal of hydrogen sulfide dissolved in water (in words): summary of Table 3; for Residual hydrogen sulfide concentration: water, test compound 500 ppm, stirring for 10 minutes, ND = complete removal
Protocol: Distilled water was bubbled with hydrogen sulfide gas. Thus, a hydrogen sulfide-dissolved solution (5 mgS/l) was prepared. The solution was placed in separate beakers. Then, formulations that were prepared in accordance with Test example 2 were separately added thereto in a manner such that the concentration of each test compound became 500 ppm, followed by stirring for 10 minutes. Thereafter, the residual hydrogen sulfide concentration was measured. The measurement was carried out using “Pack Tests” (Kyoritsu Chemical-Check Lab., Corp.) in accordance with a methylene blue colorimetric method.

[4] = Test Example 4: removal of hydrogen sulfide gas by formulation in closed bag, detector tube; details: for Hydrogen sulfide concentration: 1 ml formulation, 1 liter hydrogen sulfide gas at 500 ppm; for removal of hydrogen sulfide gas (in words): summary of Table 4
Protocol: A formulation containing BNPA was previously prepared in accordance with Formulation example 1. With the use of BNP instead of BNPA, a formulation containing BNP was prepared in accordance with formulation example 1.
Iron sulfide and hydrochloric acid were allowed to react with each other, resulting in the generation of hydrogen sulfide. Thus, hydrogen sulfide gas at a concentration of 500 ppm was prepared. Each formulation (1 ml) was placed in a glass petri dish covered with a plastic bag. Then, each plastic bag was closed after being filled with 1 liter of hydrogen sulfide gas. At 24 and 48 hours later, the hydrogen sulfide gas concentration was measured using a detector tube.

[5] = Test Example 5: removal of hydrogen sulfide dissolved in water, 30 minutes stirring, methylene blue colorimetric method; details: for residual hydrogen sulfide (in words): summary of Table 5
Protocol: Distilled water was bubbled with a hydrogen sulfide gas. Thus, a solution containing dissolved hydrogen sulfide (5 mgS/l) was prepared. The solution was placed in separate beakers. Then, formulations that were prepared in accordance with Test example 4 were separately added thereto in a manner such that the concentration of each test compound became 500 ppm, followed by stirring for 30 minutes using a stirrer. Thereafter, the residual hydrogen sulfide concentration was measured. The measurement was carried out using “Pack Tests” (Kyoritsu Chemical-Check Lab., Corp.) in accordance with a methylene blue colorimetric method.

SMILES | Test sample A Hydrogen sulfide concentration ([1]; contact time 0 minutes) | Test sample A Hydrogen sulfide concentration ([1]; contact time 10 minutes) | Test sample A Hydrogen sulfide concentration ([1]; contact time 30 minutes) | Test sample A Hydrogen sulfide concentration ([1]; contact time 60 minutes) | effect of removing hydrogen sulfide (in words) [1] | Methyl mercaptan gas concentration ([2]; contact time 0 hours) | Methyl mercaptan gas concentration ([2]; contact time 24 hours) | Methyl mercaptan gas concentration ([2]; contact time 48 hours) | effect of removing methyl mercaptan (in words) [2] | removal of hydrogen sulfide dissolved in water (in words) [3] | Hydrogen sulfide concentration ([4]; contact time 0 hours) | Hydrogen sulfide concentration ([4]; contact time 24 hours) | Hydrogen sulfide concentration ([4]; contact time 48 hours) | removal of hydrogen sulfide gas (in words) [4] | residual hydrogen sulfide (in words) [5] | Residual hydrogen sulfide concentration [3] | Residual hydrogen sulfide concentration ([5]; water 5 mgS/l, test compound 500 ppm, stirring for 30 minutes, ND = no hydrogen sulfide observed)
CC(=O)OCC(Br)(COC(C)=O)[N+](=O)[O-] [BNPA, 2-bromo-2-nitropropane-1,3-diyl diacetate] | 100 ppm | 38 ppm | 14 ppm | 2 ppm | had an effect of removing hydrogen sulfide | 500 ppm | 283 ppm | 0 ppm | complete removal of methyl mercaptan gas was achieved after 48 hours | complete removal of hydrogen sulfide | 500 ppm | 210 ppm | 0 ppm | complete removal of hydrogen sulfide was achieved after 48 hours | no hydrogen sulfide was observed |  | 
O=[N+]([O-])C(Br)(CO)CO [BNP, 2-bromo-2-nitro-1,3-propanediol] | 100 ppm | 81 ppm | 77 ppm | 68 ppm | the removal efficiency was poor | 500 ppm | 485 ppm | 461 ppm | almost no effect of removing methyl mercaptan | very low capacity for removing hydrogen sulfide | 500 ppm | 480 ppm | 470 ppm | complete removal was not achieved | residual hydrogen sulfide was observed | 18 mgS/l | 1 mgS/l
O=[N+]([O-])C(Br)(Br)CO [DBNE, 2,2-dibromo-2-nitroethanol] | 100 ppm | 42 ppm | 25 ppm | 11 ppm | had an effect of removing hydrogen sulfide | 500 ppm | 358 ppm | 29 ppm | confirmed to have the effect of removing methyl mercaptan | confirmed to have an effect of removing hydrogen sulfide |  |  |  |  |  | 5 mgS/l | 

Reference: patent publication US20070205140A1, “Method of Removing Sulfides Including Hydrogen Sulfide and Mercaptan” (K - I CHEMICAL INDUSTRY CO., LTD., priority 2004, published 2007)
